Assay results from ChEMBL document CHEMBL1150190, “Lyngbyatoxins B and C, two new irritants from Lyngbya majuscula” (J Nat Prod, 1990).

How the values were obtained:
[1] = Displacement of [3H]12-O-tetradecanoyl-phorbol-13-acetate from TPA receptor
Mus musculus = species on record: Mus musculus; experiment: Toxicity in mouse by ear irritant test; assay type: organism-based; conditions: in vivo

Structure (SMILES) | ED50 [1] [nM] | Activity (Mus musculus)
C=C[C@@](C)(CCC(O)C(=C)C)c1ccc2c3c(c[nH]c13)C[C@@H](CO)NC(=O)[C@H](C(C)C)N2C (some centres undefined) [LYNGBYATOXI B] | 2200 | Toxic
C=C[C@@](C)(C/C=C/C(C)(C)O)c1ccc2c3c(c[nH]c13)C[C@@H](CO)NC(=O)[C@H](C(C)C)N2C [LYNGBYATOXIN C] | 200 | Toxic
